Patent US20150065416A1, “NOVEL DRUG COMBINATION” (FAB PHARMA SAS, priority 2013, published 2015)

How the values were obtained:
A. baumannii SAN strain = experiment: Bactericidal activity (time kill kinetics, Example 5); format: cell-based, Acinetobacter baumannii; conditions: alone at 2×MIC
Description: In addition, a second set of experiments involved the testing of compound(I)/additional antibacterial agent combinations of 2×/2×MIC. Samples were taken at 0, 3, 6 and 24 hours in order to determine colony forming units (CFU/mL).

A. baumannii SAN-94040 = experiment: Additional mouse model of A. baumannii pneumonia (Example 7): survival; format: in vivo, Acinetobacter baumannii
Description: The bacterial inoculum was prepared in order to obtain a suspension containing 10^8 CFU/mL of Acinetobacter baumannii in saline, unless indicated otherwise.
Experimentations were performed with six-week old female C3H/HeN mice (18-20 g, Harlan Laboratories) because of their particular susceptibility to Acinetobacter baumannii. Each mouse was individually marked and housed in cages containing five animals/cage under ventilated and controlled (temperature and humidity) atmosphere.
The mice were rendered transiently neutropenic by 2 intra-peritoneal (IP) injections of 150 μL of cyclophosphamide (150 mg/kg) 4 (D-4) and 3 (D-3) days before the Acinetobacter baumannii inoculation (Day 0).
Mice were infected with 50 μL the prepared bacterial suspension (inoculums depending on experiment) via intra-tracheal inoculation of mouse. In the study, three animals (Group 1) were sacrificed after inoculation to determine bacterial burden in lungs at the time of infection. Lungs were aseptically removed, weighed and homogenized in 1 mL of 0.9% NaCl. Homogenates were serially diluted and plated on TSA agar. Plates were incubated overnight at 37° C. in 5% CO2. Following incubation, colonies were counted for bacterial growth.
Animal survival was assessed every day for 7 days. Survival data were tabulated and a Probit analysis performed to determine the 50% protective dose (PD50) for each group.
The aim of this experiment was to assess the survival rate of transiently neutropenic female C3H/HeN mice administered, 3 hours post-inoculation of A. baumannii SAN-94040 via intra-tracheal route, with compound (I) via intra-peritoneal route at 200 mg/kg 3 times daily (every 8 hours) for 1 day alone and in combination with meropenem at 30 mg/kg 3 times daily (every 8 hours) for 1 day.

A. baumannii isolates [1] = experiment: Time kill study (Example 4); format: cell-based, Acinetobacter baumannii; conditions: for Time to kill 99.9%: alone; for MIC: Acinetobacter baumannii, read-out: MIC
Description: A total of 12 isolates were tested (three per sub-group either susceptible, meropenem-resistant, amikacin-resistant or colistin-resistant). Two combinations were tested per isolate. Time-kill kinetics were performed by testing compound (I) and an additional antibacterial agent (amikacin, colistin and meropenem) individually at 1× and 4× the corresponding MIC of each antibacterial agent. […] Samples were taken at 0, 2, 4, 8 and 24 hours in order to determine colony forming units (CFU/mL).
Time-kill studies were carried out as described in General Procedures using combinations of compound (I) with amikacin, meropenem and colistin, respectively.

A. baumannii isolates [2] = experiment: Individual antimicrobial susceptibility testing (MIC, broth microdilution, CLSI); format: cell-based, Acinetobacter baumannii
Description: In the antimicrobial susceptibility testing 77 isolates of A. baumannii (from 2010) in the following sub-groups were tested: • 22 isolates generally susceptible to antimicrobial agents (“Sus”) • 20 carbapenem-resistant isolates (e.g. “MPM-R”) • 20 aminoglycoside-resistant isolates (e.g. “AMK-R”) • 15 colistin-resistant isolates. (e.g. “COL-R”)
Minimum inhibitory concentration (MIC) endpoints were determined by broth microdilution according to CLSI guidelines (CLSI, M7-A8 & M100-S22, 2012). Panels were prepared at IHMA using cation-adjusted Mueller-Hinton broth. Colonies were taken directly from a second-pass culture plate and prepared to a suspension equivalent of the 0.5 McFarland standard using normal saline.
Testing was carried out as described in the General Procedures to determine minimum inhibitory concentration (MIC) end points for compound (I), amikacin, colistin, gentamicin, meropenem and tobramycin, for 77 A. baumannii isolates. Under the “MIC (μg/ml)” heading, the first column (Range) indicates the MIC end points for the particular number (N) of isolates tested, the second column (50%) provides an estimate of the concentration that inhibits 50% (MIC50) of bacterial isolates tested, and the third column (90%) provides an estimate of the concentration that inhibits 90% of the bacterial isolates tested.

[3] = Example 7, 48 h after infection, doses as E246
[4] = Example 7, 72 h after infection, doses as E246
[5] = Example 7, 96 h after infection, doses as E246
[6] = Acinetobacter baumannii, All isolates, N=77
[7] = Acinetobacter baumannii, Amikacin-resistant isolates, N=20
[8] = Acinetobacter baumannii, Colistin-resistant isolates, N=15
[9] = Acinetobacter baumannii, Meropenem-resistant isolates, N=20
[10] = Acinetobacter baumannii, Susceptible isolates, N=22

CCc1cc(O)c(Oc2ccc(C(N)=O)cc2F)cc1F [compound (I), 4-(4-ethyl-5-fluoro-2-hydroxyphenoxy)-3-fluorobenzamide]
80%: survivors (%) (A. baumannii SAN-94040; [3])
0.5 to 8 mg/L: MIC Range (A. baumannii isolates [2]; Susceptible isolates, N=22)
> 32 mg/L: MIC90 (A. baumannii isolates [2]; [8])
6: No. of survivors (A. baumannii SAN-94040; [4]) | No. of survivors (A. baumannii SAN-94040; [5])
8 mg/L: MIC (A. baumannii isolates [1]; isolate COL-R-1) | MIC (A. baumannii isolates [1]; isolate MPM-R-1) | MIC (A. baumannii isolates [1]; isolate Sus-3) | MIC90 (A. baumannii isolates [2]; [6]) | MIC90 (A. baumannii isolates [2]; [7]) | MIC50 (A. baumannii isolates [2]; [9]) | MIC90 (A. baumannii isolates [2]; [9]) | MIC90 (A. baumannii isolates [2]; [10])
100%: survivors (%) (A. baumannii SAN-94040; Example 7, 24 h after infection, doses as E246)
16 mg/L: MIC (A. baumannii isolates [1]; isolate COL-R-3)
0.5 to 8 µg/mL: MICs ranging (A. baumannii isolates [2]; susceptible isolates)
2 to 8 µg/mL: range of the majority of MICs (A. baumannii isolates [2]; 77 isolates) | MICs ranging (A. baumannii isolates [2]; amikacin-R isolates)
>24 h: Time to kill 99.9% (A. baumannii isolates [1]; AMK-R-1, 1xMIC) | Time to kill 99.9% (A. baumannii isolates [1]; AMK-R-1, 4xMIC) | Time to kill 99.9% (A. baumannii isolates [1]; AMK-R-2, 1xMIC) | Time to kill 99.9% (A. baumannii isolates [1]; AMK-R-2, 4xMIC) | Time to kill 99.9% (A. baumannii isolates [1]; AMK-R-3, 1xMIC) | Time to kill 99.9% (A. baumannii isolates [1]; AMK-R-3, 4xMIC) | Time to kill 99.9% (A. baumannii isolates [1]; COL-R-1, 1xMIC) | Time to kill 99.9% (A. baumannii isolates [1]; COL-R-1, 4xMIC) | Time to kill 99.9% (A. baumannii isolates [1]; COL-R-2, 1xMIC) | Time to kill 99.9% (A. baumannii isolates [1]; COL-R-2, 4xMIC) | Time to kill 99.9% (A. baumannii isolates [1]; COL-R-3, 1xMIC) | Time to kill 99.9% (A. baumannii isolates [1]; COL-R-3, 4xMIC) | Time to kill 99.9% (A. baumannii isolates [1]; MPM-R-1 (second line, Table 8 r14), 1xMIC) | Time to kill 99.9% (A. baumannii isolates [1]; MPM-R-1 (second line, Table 8 r14), 4xMIC) | Time to kill 99.9% (A. baumannii isolates [1]; MPM-R-1, 1xMIC) | Time to kill 99.9% (A. baumannii isolates [1]; MPM-R-1, 4xMIC) | Time to kill 99.9% (A. baumannii isolates [1]; MPM-R-2, 1xMIC) | Time to kill 99.9% (A. baumannii isolates [1]; MPM-R-2, 4xMIC) | Time to kill 99.9% (A. baumannii isolates [1]; MPM-R-3, 1xMIC) | Time to kill 99.9% (A. baumannii isolates [1]; MPM-R-3, 4xMIC) | Time to kill 99.9% (A. baumannii isolates [1]; Sus-1, 1xMIC) | Time to kill 99.9% (A. baumannii isolates [1]; Sus-1, 4xMIC) | Time to kill 99.9% (A. baumannii isolates [1]; Sus-2, 1xMIC) | Time to kill 99.9% (A. baumannii isolates [1]; Sus-2, 4xMIC) | Time to kill 99.9% (A. baumannii isolates [1]; Sus-3, 1xMIC) | Time to kill 99.9% (A. baumannii isolates [1]; Sus-3, 4xMIC)
1 mg/L: MIC (A. baumannii isolates [1]; isolate Sus-1)
8: No. of survivors (A. baumannii SAN-94040; [3])
2 to 8 mg/L: MIC Range (A. baumannii isolates [2]; Amikacin-resistant isolates, N=20)
bacteriostatic: effect in time-kill study when tested alone (A. baumannii SAN strain) | effect in time-kill studies when tested alone (A. baumannii isolates [1]; alone at 1× or 4×MIC)
2 mg/L: MIC (A. baumannii isolates [1]; isolate AMK-R-3) | MIC (A. baumannii isolates [1]; isolate Sus-2)
4 mg/L: MIC (A. baumannii isolates [1]; isolate AMK-R-1) | MIC (A. baumannii isolates [1]; isolate AMK-R-2) | MIC (A. baumannii isolates [1]; isolate COL-R-2) | MIC (A. baumannii isolates [1]; isolate MPM-R-2) | MIC (A. baumannii isolates [1]; isolate MPM-R-3) | MIC (A. baumannii isolates [1]; isolate printed MPM-R-1 (second such line of Table 8, r14)) | MIC50 (A. baumannii isolates [2]; [6]) | MIC50 (A. baumannii isolates [2]; [7]) | MIC50 (A. baumannii isolates [2]; [8]) | MIC50 (A. baumannii isolates [2]; [10]) | MIC (A. baumannii isolates [2]; Acinetobacter baumannii, 77 isolates, FIG. 1 and 2, read-out: mode MIC)
10: No. of survivors (A. baumannii SAN-94040; Example 7, 24 h after SAN-94040 infection, compound (I) 200 mg/kg, meropenem 30 mg/kg, colistin 125000 UI/kg Q8h I.P. for 1 day)
60%: survivors (%) (A. baumannii SAN-94040; [4]) | survivors (%) (A. baumannii SAN-94040; [5]) | survival rate (A. baumannii SAN-94040; Example 7, text, time not stated)
